Reference: US20260317304A1, “TEAD INHIBITORS AND METHODS OF USE” (Sporos BioDiscovery, Inc., priority 2022, published 2026)

Legend:
TEAD isoforms 1-4 = experiment: TEAD thermal shift assay (TSA), outcome in words; type: binding, human
Description: Thermal shift assay (TSA) is a biophysical method to evaluate stability of proteins with change in temperature. The assay measures thermal denaturation temperature in varying conditions such as different drug concentration. For this example, fluorogenic dye was used that bind to unfolded proteins. SYPRO Orange binds non-specifically to hydrophobic surfaces, and water strongly quenches its fluorescence. When the protein unfolds, the exposed hydrophobic surfaces bind the dye, resulting in an increase in fluorescence by excluding water. Detergent micelles also bind the dye and increase background noise dramatically. Binding of small molecules to proteins leads to a stabilization against to thermal denaturation with the degree of thermal stabilization proportional to the strength of binding.
The study described in this example investigated the change in melting temperature (ΔTm) of TEAD isoforms 1-4 when treated with TEAD inhibitors.
Tris-HCL was dissolved in 5 mL of Cell culture grade water and allowed to dissolve completely. The pH was adjusted to 8 using NaOH. Additional assay buffer components were added in the order listed above. The buffer was mixed slowly.
Assay buffer was prepared according to the procedures outlined above and dispensed into test wells. Spyro orange was added to a concentration of 5× in the assay buffer, followed by test compound stock solution which was added to a concentration of 10 μM or 30 μM in the assay buffer.
The melt cycle was performed in Bio-RAD PCR instrument from 20-95° C. with ramp rate of 1° C./min.

MSTO-211H xenograft [1] = experiment: Mouse xenograft MSTO-211H tumors, study part 2; type: in vivo, BALB/c nude mice; conditions: PO
Description: (§1) This study evaluated the in vivo anti-tumor efficacy of test compounds in BALB/c nude mice for treatment of MSTO-211H xenograft of lung cancer.
(§2) • Species: Mus Musculus • Strain: BALB/c nude • Age: 6-8 weeks • Sex: female • Body weight: 18-22 g • Number of animals inoculated with tumor: 80 mice • Number of animals enrolled in the treatment: 36 mice • Number of unenrolled animals: 44 mice • Animal supplier: Beijing Vital River Biotechnology Experimental Animal Co. Ltd Certification number: 20170011010591
(§3) The MSTO-211H tumor cells were maintained in RPMI 1640 medium supplemented with 10% Fetal bovine serum and 1% Antibiotic-Antimycotic at 37° C. in an atmosphere of 5% CO2 in air. The tumor cells were routinely subcultured twice weekly by trypsin-EDTA. The cells growing in an exponential growth phase with 95% cell survival or above were harvested, and counted for tumor inoculation.
(§4) Each mouse was inoculated subcutaneously at the right flank with MSTO-211H tumor cells (5×10^6+50% matrigel/0.2 mL) for tumor development. Animals were marked with earrings with unique 6 significant figure number for identification. The treatments of part 1 were started on day 5 after cell inoculation when the average tumor volume reached 181 mm^3. The treatments of part 2 were started on day 16 after cell inoculation when the average tumor volume reached 254 mm^3. The treatments of part 3 were started on day 33 after cell inoculation when the average tumor volume reached 969 mm^3.
(§5) The major endpoint was to determine if the tumor growth could be delayed. Tumor volume was measured twice a week in two dimensions using a caliper, and the volume was expressed in mm^3 using the formula: V=0.5 a×b^2 where a and b are the long and short diameters of the tumor, respectively. The tumor size was then used for calculations of T/C value. The TGI value (in percent) or the T/C value (in percent) is an indication of antitumor effectiveness; T and C are the mean tumor volumes or tumor weights of the treated and control groups, respectively, on a given day.
(§6) TGI was calculated for each group using the formula: TGI (%)=[1−(Ti−T0)/(Vi−V0)]×100; Ti is the average tumor volume of a treatment group on a given day, T0 is the average tumor volume of the treatment group on the day of treatment start, Vi is the average tumor volume of the vehicle control group on the same day with Ti, and V0 is the average tumor volume of the vehicle group on the day of treatment start.
(§7) Relative T/C (%)=TRTV/CRTV×100 (RTV (%)=Vt/V0×100, Vt is the average tumor volume on a given day, V0 is the average tumor volume on the first day of treatment. TRTV is the RTV of a treatment group, and the CRTV is the RTV of the vehicle control group.)
The antitumor effectiveness of part 2 study was analyzed on PG-D30 when vehicle group reached 738 mm^3.
(§8) Summary statistics, including mean and the standard error of the mean (SEM), were provided for the tumor volume of each group at each time point.
(§9) Statistical analysis of difference in tumor volume among the groups was conducted on the data obtained at the end of the study.
(§10) One-tailed T test was performed to compare tumor volumes between two groups. All data are analyzed using GraphPad Prism 6.0. p<0.05 is considered to be statistically significant.

MSTO-211H xenograft [2] = experiment: Mouse xenograft MSTO-211H tumors, study part 3; type: in vivo, BALB/c nude mice; conditions: PO
Description: as §1, §2, §3, §4, §5, §6, §7
The antitumor effectiveness of part 3 study was analyzed on PG-D13 when vehicle group reached 1791 mm^3.
as §8, §9, §10

[3] = part 2, day 30, 12.5 mg/kg, BID
[4] = part 3, day 13, 12.5 mg/kg, BID

Structure (SMILES): Cn1cnc(-c2cc([C@@]3(C)CCNC3=O)ccc2Nc2ccc(C(F)(F)F)cc2)c1 (single isomer, unassigned) [Compound 5, 3-methyl-3-(3-(1-methyl-1H-imidazol-4-yl)-4-((4-(trifluoromethyl)phenyl)amino)phenyl)pyrrolidin-2-one]
- thermal shift / TEAD binding (in words) (TEAD isoforms 1-4): strong TEAD1 and TEAD4 binding

Structure (SMILES): Cn1nnc(-c2cc([C@]3(C)CCNC3=O)ccc2Nc2ccc(C(F)(F)F)cc2)n1 (stereo in doubt) [Compound 20, 3-methyl-3-(3-(2-methyl-2H-tetrazol-5-yl)-4-((4-(trifluoromethyl)phenyl)amino)phenyl) pyrrolidin-2-one]
- Tumor size (MSTO-211H xenograft [1]; part 2, day 0, 12.5 mg/kg, BID): 254 ± 30 mm^3
- Tumor size (MSTO-211H xenograft [1]; part 2, day 2, 12.5 mg/kg, BID): 249 ± 37 mm^3
- Tumor size (MSTO-211H xenograft [1]; part 2, day 6, 12.5 mg/kg, BID): 160 ± 39 mm^3
- Tumor size (MSTO-211H xenograft [1]; part 2, day 9, 12.5 mg/kg, BID): 116 ± 36 mm^3
- Tumor size (MSTO-211H xenograft [1]; part 2, day 12, 12.5 mg/kg, BID): 80 ± 13 mm^3
- Tumor size (MSTO-211H xenograft [1]; part 2, day 16, 12.5 mg/kg, BID): 75 ± 10 mm^3
- Tumor size (MSTO-211H xenograft [1]; part 2, day 20, 12.5 mg/kg, BID): 78 ± 14 mm^3
- Tumor size (MSTO-211H xenograft [1]; part 2, day 23, 12.5 mg/kg, BID): 91 ± 10 mm^3
- Tumor size (MSTO-211H xenograft [1]; part 2, day 27, 12.5 mg/kg, BID): 96 ± 6 mm^3
- T/C (MSTO-211H xenograft [1]; [3]): 22.24%
- TGI (MSTO-211H xenograft [1]; [3]): 118.44%
- Tumor size (MSTO-211H xenograft [1]; [3]): 164 ± 15 mm^3
- Tumor Volume (MSTO-211H xenograft [1]; part 2, day 30, 12.5 mg/kg, BID (Table 17)): 164 ± 15 mm^3
- Tumor size (MSTO-211H xenograft [2]; part 3, day 0, 12.5 mg/kg, BID): 963 ± 136 mm^3
- Tumor size (MSTO-211H xenograft [2]; part 3, day 3, 12.5 mg/kg, BID): 740 ± 122 mm^3
- Tumor size (MSTO-211H xenograft [2]; part 3, day 6, 12.5 mg/kg, BID): 591 ± 61 mm^3
- Tumor size (MSTO-211H xenograft [2]; part 3, day 10, 12.5 mg/kg, BID): 444 ± 36 mm^3
- T/C (MSTO-211H xenograft [2]; [4]): 18.94%
- TGI (MSTO-211H xenograft [2]; [4]): 177.56%
- Tumor size (MSTO-211H xenograft [2]; [4]): 339 ± 51 mm^3
- Tumor Volume (MSTO-211H xenograft [2]; part 3, day 13, 12.5 mg/kg, BID (Table 18)): 339 ± 51 mm^3
